The record followed here is patent publication US20120178742A1, “METABOTROPIC GLUTAMATE RECEPTOR MODULATORS” (MERZ PHARMA GmbH & CO. KGaA, priority 2009, published 2012).

pEC50: −log10 of the molar value.

The target in assay [1] is T1, human metabotropic glutamate receptor mGluR5 (Homo sapiens, UniProt P41594).
T1 construct: expressed in transfected cells; host or cells: CHO-K1
Description: Cytosolic calcium studies with stably transfected cells (CHO-K1). The format is cell-based. How it is done:
Functional Assay of mGluR5 Receptors Cytosolic Calcium Studies with Stably Transfected Cells
Chinese hamster ovary cells (CHO-K1 cells), stably transfected for inducible expression of a human metabotropic glutamate receptor mGluR5, are seeded into black clear bottom 96 well plates at a density of 35.000 cells per well. The standard growth medium used (Dulbecco's modified Eagle Medium, DMEM plus L-proline) contains the appropriate inducer isopropyl-β-D-thiogalactopyranosid (IPTG) to achieve optimal receptor expression. One day after seeding the growth medium is exchanged for reconstituted Ca-Kit (Molecular Devices, USA) and incubated for one hour. Ca-Kit is reconstituted in an assay buffer containing 20 mM HEPES pH 7.4, glutamic-pyruvate transaminase, pyridoxal phosphate and sodium pyruvate in Hank's balanced salt solution (HBBS). Agonistic compounds to the receptor elicit increases in cytosolic calcium which can be measured as increases in fluorescence signals by use of a fluorescence imaging plate reader (Molecular Devices). […] Similarly, for the characterization of positive allosteric modulators, a dilution series of the test compound is added online to 384 well plates containing the described dye loaded cells and after a preincubation time of 5 minutes stimulated by a basal cell concentration of the agonist L-glutamate giving about 20% of the maximal signal.
(§1) The fluorescence signal increase after addition of agonist reflects the increase of cytosolic calcium. Inconsistencies in the amount of cells per well are normalised by using the spatial uniformity correction of the FLIPR operating software Screenworks. The mean of replicated temporal data (n=3-5) is calculated and used for graphical representation. For the evaluation of the pharmacology, the calcium changes in response to different concentrations of agonist or antagonist are determined using a maximum minus minimum (MaxMin) calculation.
(§2) All responses (RFU-values) are determined as percentage of control (=maximum response). EC50 and IC50 are calculated according the logistic equation using Prism 4.0 (GraphPad Software, USA).

Assay [2] has as its target T2, mGluR5 receptors (Rattus norvegicus, UniProt P31424).
T2 construct: Primary astrocyte cultures are prepared from cortices of newborn rats; endogenous in cells; host or cells: primary rat cortical astrocytes (Sprague-Dawley pups)
The assay can be described thus: Cytosolic calcium studies with cultured rat astrocytes. Type of assay: cell-based. How it is done:
Primary astrocyte cultures are prepared from cortices of newborn rats as described by Booher and Sensenbrenner (1972, Neurobiology 2(3):97-105). Briefly, Sprague-Dawley rat pups (2-4 d old) are decapitated and neocortices are dissected, disintegrated with a nylon filter (pore size 80 μm) and carefully triturated. The cell suspension is plated on poly-D-lysine pre-coated flasks (Costar, Netherlands) and cultivated in Dulbecco's Modified Eagle's Medium (DMEM, Invitrogen, Germany) supplemented with 10% foetal calf serum (FCS, Sigma, Germany), 4 mM glutamine and […] gentamycin (both Biochrom, Germany) at 37° C. in a humidified atmosphere of 5% CO2/95% air for 7 days with exchanging the medium at day 2 and 6.
After 7 days in vitro (DIV), cells are shaken overnight at 250 rpm to remove oligodendrocytes and microglia. The next day, astrocytes are rinsed twice with CMF-PBS (calcium- and magnesium-free phosphate buffered saline, Biochrom, Germany), trypsinized and subplated on poly-D-lysine pre-coated 96-well plates (Greiner, Germany) at a density of 40,000 cells/well. 24 h after establishing the secondary culture the astrocytes are rinsed with PBS″ (phosphate buffered saline, Biochrom, Germany) and fed with astrocyte-defined medium (ADM) consisting of DMEM containing 1× G5-supplement (Invitrogen, Germany), 0.5 μg/ml heparan sulfate, and 1.5 μg/ml fibronectin (both Sigma, Germany) (Miller et al., (1993) Brain Res. 618(1):175-8). 3 days later the medium is exchanged and the cells incubated for another 2-3 days, so that at the time of experiments astrocytes are 14-15 DIV.
The increase of cytosolic calcium after stimulation with the mGluR5 agonist L-quisqualate is measured using a fluorometric imaging plate reader (FLIPR) and the Ca-Kit (both Molecular Devices). Prior to addition of agonist or antagonist the medium is aspirated and cells are loaded for 2 h at RT with 150 μl of loading buffer consisting of Ca-sensitive dye reconstituted in sodium chloride (123 mM), potassium chloride (5.4 mM), magnesium chloride (0.8 mM), calcium chloride (1.8 mM), D-glucose (15 mM), and HEPES (20 mM), pH 7.3. Subsequently, plates are transferred to FLIPR to detect calcium increase with the addition of L-quisqualate (100 nM) measured as relative fluorescence units (RFU). If antagonists are tested, these compounds are pre-incubated for 10 minutes at RT before addition of the respective agonist.
Thereafter, concentration-response curves for the positive modulator are performed in the presence of a fixed concentration of quisqualate showing the biggest window for potentiation (normally 10-30 nM).
as §1, §2

T1 sequence (P41594 21-1212): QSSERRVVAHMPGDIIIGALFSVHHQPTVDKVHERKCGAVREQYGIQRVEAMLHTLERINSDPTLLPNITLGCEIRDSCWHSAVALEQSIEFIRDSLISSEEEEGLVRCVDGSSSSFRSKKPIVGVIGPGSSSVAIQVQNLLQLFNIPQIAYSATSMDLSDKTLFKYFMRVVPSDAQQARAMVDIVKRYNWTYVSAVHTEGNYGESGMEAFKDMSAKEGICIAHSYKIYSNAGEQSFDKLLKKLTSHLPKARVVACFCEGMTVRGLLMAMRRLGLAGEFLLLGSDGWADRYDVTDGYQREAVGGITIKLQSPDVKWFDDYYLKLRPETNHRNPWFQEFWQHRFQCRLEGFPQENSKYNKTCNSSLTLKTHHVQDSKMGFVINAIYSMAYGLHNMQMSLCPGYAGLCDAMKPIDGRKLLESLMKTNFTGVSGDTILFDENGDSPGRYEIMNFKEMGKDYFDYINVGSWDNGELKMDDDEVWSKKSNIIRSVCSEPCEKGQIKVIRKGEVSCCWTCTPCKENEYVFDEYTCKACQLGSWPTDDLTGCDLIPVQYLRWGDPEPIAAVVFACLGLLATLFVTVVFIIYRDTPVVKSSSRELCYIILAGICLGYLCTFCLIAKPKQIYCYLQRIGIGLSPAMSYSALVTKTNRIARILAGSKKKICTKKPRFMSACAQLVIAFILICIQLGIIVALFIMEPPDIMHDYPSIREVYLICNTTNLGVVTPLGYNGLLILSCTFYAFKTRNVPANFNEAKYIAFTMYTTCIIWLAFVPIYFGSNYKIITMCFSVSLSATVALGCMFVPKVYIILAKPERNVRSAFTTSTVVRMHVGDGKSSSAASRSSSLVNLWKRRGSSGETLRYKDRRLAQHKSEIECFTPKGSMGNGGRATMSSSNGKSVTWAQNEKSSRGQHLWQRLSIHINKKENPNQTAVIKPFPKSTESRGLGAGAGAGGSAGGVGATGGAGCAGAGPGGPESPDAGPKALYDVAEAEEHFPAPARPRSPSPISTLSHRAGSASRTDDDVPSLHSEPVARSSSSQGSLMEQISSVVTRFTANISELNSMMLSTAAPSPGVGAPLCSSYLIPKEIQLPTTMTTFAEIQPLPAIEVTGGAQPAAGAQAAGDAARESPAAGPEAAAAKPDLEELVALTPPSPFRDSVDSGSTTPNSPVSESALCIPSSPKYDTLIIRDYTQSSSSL
T2 sequence (P31424 21-1203): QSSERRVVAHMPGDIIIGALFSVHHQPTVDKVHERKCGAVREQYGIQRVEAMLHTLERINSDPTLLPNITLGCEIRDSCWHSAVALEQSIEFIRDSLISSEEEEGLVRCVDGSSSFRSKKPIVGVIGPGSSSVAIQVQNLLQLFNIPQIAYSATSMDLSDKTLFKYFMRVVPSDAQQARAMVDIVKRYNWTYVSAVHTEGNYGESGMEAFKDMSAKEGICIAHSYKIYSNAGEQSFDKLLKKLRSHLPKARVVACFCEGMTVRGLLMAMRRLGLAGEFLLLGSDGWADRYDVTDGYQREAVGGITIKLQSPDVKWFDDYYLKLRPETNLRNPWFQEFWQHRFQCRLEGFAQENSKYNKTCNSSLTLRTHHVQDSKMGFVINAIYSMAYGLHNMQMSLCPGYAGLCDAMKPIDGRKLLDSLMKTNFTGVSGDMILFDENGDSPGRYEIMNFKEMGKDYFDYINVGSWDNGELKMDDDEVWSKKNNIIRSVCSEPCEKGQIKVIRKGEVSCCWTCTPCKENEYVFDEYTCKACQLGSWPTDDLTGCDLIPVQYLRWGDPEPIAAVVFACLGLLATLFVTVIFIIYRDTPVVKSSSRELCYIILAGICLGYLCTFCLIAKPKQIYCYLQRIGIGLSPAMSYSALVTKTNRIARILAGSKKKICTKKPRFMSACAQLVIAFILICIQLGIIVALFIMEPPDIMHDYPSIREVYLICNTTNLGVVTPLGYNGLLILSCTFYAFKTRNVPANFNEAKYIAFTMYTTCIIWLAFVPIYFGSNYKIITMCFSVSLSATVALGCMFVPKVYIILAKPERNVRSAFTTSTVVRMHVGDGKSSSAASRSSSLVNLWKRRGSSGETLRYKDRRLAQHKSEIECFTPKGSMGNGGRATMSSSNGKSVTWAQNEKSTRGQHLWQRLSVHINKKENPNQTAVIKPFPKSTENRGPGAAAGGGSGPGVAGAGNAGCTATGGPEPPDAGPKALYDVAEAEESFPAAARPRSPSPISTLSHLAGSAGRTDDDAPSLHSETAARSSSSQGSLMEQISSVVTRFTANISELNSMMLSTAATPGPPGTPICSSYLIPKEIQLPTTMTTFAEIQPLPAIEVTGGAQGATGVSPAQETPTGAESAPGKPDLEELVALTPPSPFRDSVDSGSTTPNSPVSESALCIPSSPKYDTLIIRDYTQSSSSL

Usually pEC50 stands for the EC50 on a negative log10 scale, so that one unit is a factor of ten. As for `Fc1cccc(C#Cc2cnc3ccnn3c2)c1` [Example 3, 6-(3-Fluoro-phenylethynyl)-pyrazolo[1,5-a]pyrimidine], the pEC50 is 7.68 in assay [1] and 7.12 in assay [2].
The corresponding values for `Fc1ccc(C#Cc2cnc3ccnn3c2)cc1` [Example 4, 6-(4-Fluoro-phenylethynyl)-pyrazolo[1,5-a]pyrimidine] are 6.92 and 7.20.
The corresponding values for `C(#Cc1cnc2ccnn2c1)C1=CCCCC1` [Example 8, 6-Cyclohex-1-enylethynyl-pyrazolo[1,5-a]pyrimidine] are 7.64 and 7.15.
The like results for `C(#Cc1cnc2ccnn2c1)C1=CCSCC1` [Example 10, 6-(3,6-Dihydro-2H-thiopyran-4-ylethynyl)-pyrazolo[1,5-a]pyrimidine] were, in that order, 6.96 and 7.30.
Consider `O=C(c1cc2ccc(C#Cc3ccccc3)cn2n1)N1CCCCC1` [Example 32, (6-Phenylethynyl-pyrazolo[1,5-a]pyridin-2-yl)-piperidin-1-yl-methanone], for which the values for the pEC50 in assay [1] and in assay [2] were 6.60 and 6.32, respectively.
The corresponding values for `C(#Cc1cnc2ncnn2c1)c1ccccc1` [Example 33, 6-Phenylethynyl-[1,2,4]triazolo[1,5-a]pyrimidine] are 6.89 and 6.64.
For the compound `C(#Cc1ccc2ncnn2c1)c1ccccc1` [Example 37, 6-Phenylethynyl-[1,2,4]triazolo[1,5-a]pyridine], the pEC50 in assay [1] and in assay [2] was 6.96 in each case.
As for `C(#Cc1cnc2ncsc2c1)c1ccccc1` [Example 38, 6-Phenylethynyl-thiazolo[4,5-b]pyridine], the pEC50 was 8.00 in assay [1] and 7.14 in assay [2].
The like results for `C(#Cc1cnc2nccnc2c1)c1ccccc1` [Example 39, 7-Phenylethynyl-pyrido[2,3-b]pyrazine] were, in that order, 7.46 and 7.00.
The like results for `C(#Cc1cnc2nccnc2c1)C1=CCCCC1` [Example 40, 7-Cyclohex-1-enylethynyl-pyrido[2,3-b]pyrazine] were, in that order, 6.92 and 6.19.
The like results for `O=C(c1nc2ncc(C#Cc3ccccc3)cc2o1)N1CCCCC1` [Example 43, (6-Phenylethynyl-oxazolo[4,5-b]pyridin-2-yl)-piperidin-1-yl-methanone] were, in that order, 6.82 and 7.22.
Regarding `Fc1cccc(C#Cc2cnc3ncsc3c2)c1` [Example 44, 6-(3-Fluoro-phenylethynyl)-thiazolo[4,5-b]pyridine], the figures for the pEC50 in assay [1] and in assay [2] were 7.64 and 7.43, respectively.
For the compound `Fc1ccccc1C#Cc1cnc2ncsc2c1` [Example 45, 6-(2-Fluoro-phenylethynyl)-thiazolo[4,5-b]pyridine], the negative-log EC50 (pEC50) was 7.19 in assay [1] and 7.25 in assay [2].
As to `Fc1cccc(C#Cc2cnc3ncnn3c2)c1` [Example 47, 6-(3-Fluoro-phenylethynyl)-[1,2,4]triazolo[1,5-a]pyrimidine], the values for the pEC50 in assay [1] and in assay [2] were 5.89 and 5.82, respectively.
The like results for `Fc1ccccc1C#Cc1ccc2ncnn2c1` [Example 54, 6-(2-Fluoro-phenylethynyl)-[1,2,4]triazolo[1,5-a]pyridine] were, in that order, 6.13 and 6.33.
On to `Fc1ccc(C#Cc2ccc3ncnn3c2)cc1` [Example 55, 6-(4-Fluoro-phenylethynyl)-[1,2,4]triazolo[1,5-a]pyridine], for which the pEC50 in assay [1] is 6.19; in assay [2], 6.40.
The like results for `Fc1ccc(C#Cc2cnc3nccnc3c2)cc1` [Example 62, 7-(4-Fluoro-phenylethynyl)-pyrido[2,3-b]pyrazine] were, in that order, 6.26 and 6.14.
The corresponding values for `Fc1cccc(C#Cc2cnc3cccnc3c2)c1` [Example 67, 3-(3-Fluoro-phenylethynyl)-[1,5]naphthyridine] are 8.17 and 8.07.
The corresponding values for `Fc1ccccc1C#Cc1cnc2cccnc2c1` [Example 68, 3-(2-Fluoro-phenylethynyl)-[1,5]naphthyridine] are 7.72 and 7.62.
As for `Fc1ccc(C#Cc2cnc3cccnc3c2)cc1` [Example 69, 3-(4-Fluoro-phenylethynyl)-[1,5]naphthyridine], the figures for the pEC50 in assay [1] and in assay [2] were 8.01 and 7.92, respectively.
The like results for `O=C(c1nc2ncc(C#CC3=CCCCC3)cc2o1)N1CCCCC1` [Example 72, (6-Cyclohex-1-enylethynyl-oxazolo[4,5-b]pyridin-2-yl)-piperidin-1-yl-methanone] were, in that order, 6.48 and 6.49.
The corresponding values for `Cc1cccc(C#Cc2cnc3ncsc3c2)c1` [Example 73, 6-(m-Tolylethynyl)thiazolo[4,5-b]pyridine] are 7.70 and 7.85.
The corresponding values for `Cc1ccccc1C#Cc1cnc2ncsc2c1` [Example 75, 6-(o-Tolylethynyl)thiazolo[4,5-b]pyridine] are 5.64 and 6.28.
As for `Fc1ccc(C#Cc2cnc3ncsc3c2)c(F)c1` [Example 79, 6-((2,4-Difluorophenyl)ethynyl)thiazolo[4,5-b]pyridine], the pEC50 is 6.51 in assay [1] and 6.66 in assay [2].
In the case of `Fc1cc(F)cc(C#Cc2cnc3ncsc3c2)c1` [Example 80, 6-((3,5-Difluorophenyl)ethynyl)thiazolo[4,5-b]pyridine], the pEC50 in assay [1] was 6.18; in assay [2], 6.36.
The like results for `Cc1ccc(C#Cc2cnc3cccnc3c2)cc1` [Example 93, 3-(p-Tolylethynyl)-[1,5]naphthyridine] were, in that order, 7.44 and 7.11.
The like results for `Cc1ccccc1C#Cc1cnc2cccnc2c1` [Example 94, 3-(o-Tolylethynyl)-[1,5]naphthyridine] were, in that order, 6.39 and 6.68.
On to `Cc1cccc(C#Cc2cnc3cccnc3c2)c1` [Example 95, 3-(m-Tolylethynyl)-[1,5]naphthyridine], for which the pEC50 in assay [1] is 8.26; in assay [2], 8.64.
The like results for `C(#Cc1cnc2cccnc2c1)c1ccncc1` [Example 100, 3-(Pyridin-4-ylethynyl)-1,5-naphthyridine] were, in that order, 6.64 and 6.51.
